Test results reported in patent US8143288B2, “Inhibitors of HCV replication” (priority 2005, dated 2012).

Each molecule was assayed on HCV 1b-377-neo replicon cells (assay: HCV replicon FRET assay). Settings: Hepatitis C virus; HCV replicon; read-out: Activity (EC50).
Assay type: cell-based
Source text: The HCV replicon cell line was isolated from colonies as described by Lohman, et. al. (Science 1999, 285, 110-113, expressly incorporated by reference in its entirety) and used for all experiments. The HCV replicon has the nucleic acid sequence set forth in EMBL Accession No.: AJ242652, the coding sequence of which is from nt 1801 to 7758.
The coding sequence of the published HCV replicon was synthesized by Operon Technologies, Inc. (Alameda, Calif.), and the fall-length replicon was then assembled in plasmid pGem9zf(+) (Promega, Madison, Wis.) using standard molecular biology techniques. The replicon consists of (i) the HCV 5′ UTR fused to the first 12 amino acids of the capsid protein, (ii) the neomycin phosphotransferase gene (neo), (iii) the IRES from encephalomyocarditis virus (EMCV), and (iv) HCV NS3 to NS5B genes and the HCV 3′ UTR. Plasmid DNAs were linearized with ScaI and RNA transcripts were synthesized in vitro using the T7 MegaScript transcription kit (Ambion, Austin, Tex.) according to manufacturer's directions.
To generate cell lines, 4×10^6 Huh-7 cells (kindly provided by R. Bartenschlager and available from Health Science Research Resources Bank, Japan Health Sciences Foundation) were electroporated (GenePulser System, Bio-Rad) with 10 micrograms(“μg”) of RNA transcript and plated into 100-mm dishes. After 24 hours, selective media containing 1.0 milligrams/milliliter (“mg/mL”) G418 was added and media was changed every 3 to 5 days. […] These cell lines were maintained at 37° C., 5% CO2, 100% relative humidity in DMEM (Cat#11965-084) Gibco-BRL, Rockville, Md., with 10% heat inactivated calf serum (Sigma), 10 mL of 100× penicillin/streptomycin (Cat#15140-122) Gibco-BRL, Rockville, Md., Geneticin (Cat#10131-027) Gibco-BRL, Rockville, Md. at 1 mg/mL. One of the cell lines (deposited as ATCC Accession No. PTA-4583 in the American Type Culture Collection) which had approximately 3,000 copies of HCV replicon RNA/cell was used for development of the assay (HCV 1b-377-neo replicon cells).
To perform the HCV FRET screening assay, 96-well cell culture plates were used. The FRET peptide (Anaspec, Inc., San Jose, Calif.) (Taliani et al., Anal. Biochem. 1996, 240, 60-67, hereby incorporated by reference in its entirety) contains a fluorescence donor, EDANS, near one end of the peptide and an acceptor, DABCYL, near the other end. The fluorescence of the peptide is quenched by […] resonance energy transfer (RET) between the donor and the acceptor, but as the NS3 protease cleaves the peptide the products are released from RET quenching and the fluorescence of the donor becomes apparent.
The assay reagent was made as follows: 5X luciferase cell culture lysis (Cat#E153A, Promega, Madison, Wis.) diluted to 1X with dH2O, NaCl added to […] final, the FRET peptide diluted to 20 micromolar (“μM”) final from a 2 mM stock. HCV 1b-377-neo replicon cells were trypsinized, placed into each well of a 96-well plate and allowed to attach overnight. The next day, the test compounds were added to columns 1 through 10; column 11 was media plus DMSO only, and column 12 contained a titration of interferon or an HCV specific inhibitor as a control (1000 units for A12, B12, 100 units for C12, D12, 10 units for E12, F12 and 1 unit for G12, H12). […] In addition, naïve Huh-7 cells could also be used to replace wells A12 and B12 as a background control.
At subsequent various times (typically 72 hours), 10% final volume Alamar blue (Cat#00-100, Trek Diagnostics, Cleveland, Ohio) was added to each well. The plates were returned to the incubator for 5 hours and then read in the Cytoflour (PE Biosystems) to determine Alamar blue conversion in each well as a measure of cellular toxicity.

| SMILES | EC50 |
| --- | --- |
| Cc1cc(CC(=O)N2CCC[C@H]2C(=O)Nc2ccc(/C=C/c3ccc(NC(=O)[C@@H]4CCCN4C(=O)CN(C)C)cc3)cc2)on1 [Example 97] | 0.1 to 90 nM |
| Cc1cc(CC(=O)N2CCC[C@H]2C(=O)Nc2ccc(/C=C/c3ccc(NC(=O)[C@@H]4CCCN4C(=O)C(C)C)cc3)cc2)on1 [Example 98] | 0.1 to 90 nM |
| CSCC(=O)N1CCC[C@H]1C(=O)Nc1ccc(/C=C/c2ccc(NC(=O)[C@@H]3CCCN3C(=O)Cc3cccs3)cc2)cc1 [Example 99] | 0.1 to 90 nM |
| COCC(=O)N1CCC[C@H]1C(=O)Nc1ccc(/C=C/c2ccc(NC(=O)[C@@H]3CCCN3C(=O)Cc3cccs3)cc2)cc1 [Example 100] | 0.1 to 90 nM |
| CN(C)CC(=O)N1CCC[C@H]1C(=O)Nc1ccc(/C=C/c2ccc(NC(=O)[C@@H]3CCCN3C(=O)Cc3cccs3)cc2)cc1 [Example 101] | 0.1 to 90 nM |
| CC(C)C(=O)N1CCC[C@H]1C(=O)Nc1ccc(/C=C/c2ccc(NC(=O)[C@@H]3CCCN3C(=O)Cc3cccs3)cc2)cc1 [Example 102] | 0.1 to 90 nM |
| CCC(=O)N1CCC[C@H]1C(=O)Nc1ccc(/C=C/c2ccc(NC(=O)[C@@H]3CCCN3C(=O)Cc3cccs3)cc2)cc1 [Example 103] | 0.1 to 90 nM |
| Cn1cccc1CC(=O)N1CCC[C@H]1C(=O)Nc1ccc(/C=C/c2ccc(NC(=O)[C@@H]3CCCN3C(=O)Cc3cccn3C)cc2)cc1 [Example 105] | 0.1 to 90 nM |
| O=C(Nc1ccc(/C=C/c2ccc(NC(=O)[C@@H]3CCCN3C(=O)Cc3ccccc3F)cc2)cc1)[C@@H]1CCCN1C(=O)Cc1ccccc1F [Example 106] | 0.1 to 90 nM |
| O=C(Nc1ccc(/C=C/c2ccc(NC(=O)[C@@H]3CCCN3C(=O)c3ccccc3F)cc2)cc1)[C@@H]1CCCN1C(=O)c1ccccc1F [Example 107] | 100 to 1000 nM |
| O=C(Nc1ccc(/C=C/c2ccc(NC(=O)[C@@H]3CCCN3C(=O)c3cc(F)ccc3F)cc2)cc1)[C@@H]1CCCN1C(=O)c1cc(F)ccc1F [Example 108] | 100 to 1000 nM |
| O=C1N[C@H]2[C@H](CS[C@H]2CCCCC(=O)N2CCC[C@H]2C(=O)Nc2ccc(/C=C/c3ccc(NC(=O)[C@@H]4CCCN4C(=O)Cc4ccccc4)cc3)cc2)N1 [Example 109] | 0.1 to 90 nM |
| O=C(Nc1ccc(/C=C/c2ccc(NC(=O)[C@@H]3CCCN3C(=O)[C@H]3CCCO3)cc2)cc1)[C@@H]1CCCN1C(=O)[C@H]1CCCO1 [Example 110] | 0.1 to 90 nM |
| O=C(Nc1ccc(/C=C/c2ccc(NC(=O)[C@@H]3CCCN3C(=O)[C@@H]3CCCO3)cc2)cc1)[C@@H]1CCCN1C(=O)[C@@H]1CCCO1 [Example 111] | 100 to 1000 nM |
| CC(C)(C)OC(=O)N1CC(C(=O)N2CCC[C@H]2C(=O)Nc2ccc(/C=C/c3ccc(NC(=O)[C@@H]4CCCN4C(=O)C4CN(C(=O)OC(C)(C)C)C4)cc3)cc2)C1 [Example 112] | 100 to 1000 nM |
| Cc1cccc(C(=O)N2CCC[C@H]2C(=O)Nc2ccc(/C=C/c3ccc(NC(=O)[C@@H]4CCCN4)cc3)cc2)n1 [Example 113] | 1000 to 10000 nM |
| Cc1cccc(C(=O)N2CCC[C@H]2C(=O)Nc2ccc(/C=C/c3ccc(NC(=O)[C@@H]4CCCN4C(=O)c4cccc(C)n4)cc3)cc2)n1 [Example 114] | 100 to 1000 nM |
| O=C(Nc1ccc(/C=C/c2ccc(NC(=O)[C@@H]3CCCN3C(=O)C3Cc4ccccc43)cc2)cc1)[C@@H]1CCCN1 (stereo partly drawn) [Example 115] | 1000 to 10000 nM |
| O=C(Nc1ccc(/C=C/c2ccc(NC(=O)[C@@H]3CCCN3C(=O)C3Cc4ccccc43)cc2)cc1)[C@@H]1CCCN1C(=O)C1Cc2ccccc21 (stereo partly drawn) [Example 116] | 1000 to 10000 nM |
| O=C(Nc1ccc(/C=C/c2ccc(N(C(=O)c3cccs3)C(=O)[C@@H]3CCCN3C(=O)c3cccs3)cc2)cc1)[C@@H]1CCCN1C(=O)c1cccs1 [Example 117] | 0.1 to 90 nM |

| SMILES | EC50 |
| --- | --- |
| [N-]=[N+]=Nc1ccc(C(=O)N2CCC[C@H]2C(=O)Nc2ccc(/C=C/c3ccc(NC(=O)[C@@H]4CCCN4C(=O)Cc4ccccc4)cc3)cc2)cc1 [Example 118] | 0.1 to 90 nM |
| Cn1cccc1C(=O)N1CCC[C@H]1C(=O)Nc1ccc(/C=C/c2ccc(NC(=O)[C@@H]3CCCN3C(=O)c3cccn3C)cc2)cc1 [Example 121] | 0.1 to 90 nM |
| CCc1ccccc1C(=O)N1CCC[C@@H]1C(=O)Nc1ccc(/C=C/c2ccc(NC(=O)[C@@H]3CCCN3C(=O)c3ccccc3CC)cc2)cc1 [Example 124] | 1000 to 10000 nM |
| Cc1ccccc1C(=O)N1CCC[C@H]1C(=O)Nc1ccc(/C=C/c2ccc(NC(=O)[C@@H]3CCCN3C(=O)c3ccccc3C)cc2)cc1 [Example 125] | 100 to 1000 nM |
| [N-]=[N+]=Nc1cccc(CC(=O)N2CCC[C@H]2C(=O)Nc2ccc(/C=C/c3ccc(NC(=O)[C@@H]4CCCN4C(=O)Cc4ccccc4)cc3)cc2)c1 [Example 126] | 0.1 to 90 nM |
| [N-]=[N+]=Nc1cccc(CC(=O)N2CCC[C@H]2C(=O)Nc2ccc(/C=C/c3ccc(NC(=O)[C@@H]4CCCN4C(=O)CCCC[C@@H]4SC[C@@H]5NC(=O)N[C@@H]54)cc3)cc2)c1 [Example 127] | 100 to 1000 nM |
| [N-]=[N+]=Nc1cccc(CC(=O)N2CCC[C@H]2C(=O)Nc2ccc(/C=C/c3ccc(NC(=O)[C@@H]4CCCN4C(=O)Cc4cccc(N=[N+]=[N-])c4)cc3)cc2)c1 [Example 128] | 0.1 to 90 nM |
| CC(=O)N1C[C@H](OC(C)(C)C)C[C@H]1C(=O)Nc1ccc(/C=C/c2ccc(NC(=O)[C@@H]3C[C@@H](OC(C)(C)C)CN3C(=O)[C@H]3CCCO3)cc2)cc1 [Example 129] | 100 to 1000 nM |
| CC(C)(C)O[C@@H]1C[C@@H](C(=O)Nc2ccc(/C=C/c3ccc(NC(=O)[C@@H]4C[C@@H](OC(C)(C)C)CN4C(=O)[C@H]4CCCO4)cc3)cc2)N(C(=O)[C@H]2CCCO2)C1 [Example 130] | 0.1 to 90 nM |
| CC(C)(C)O[C@@H]1C[C@@H](C(=O)Nc2ccc(/C=C/c3ccc(NC(=O)[C@@H]4C[C@@H](OC(C)(C)C)CN4C(=O)Cc4cccnc4)cc3)cc2)N(C(=O)Cc2cccnc2)C1 [Example 131] | 0.1 to 90 nM |
| CC(=O)N1C[C@H](OC(C)(C)C)C[C@H]1C(=O)Nc1ccc(/C=C/c2ccc(NC(=O)[C@@H]3C[C@@H](OC(C)(C)C)CN3C(=O)Cc3cccnc3)cc2)cc1 [Example 132] | 100 to 1000 nM |
| COc1ccccc1C(=O)N1CCC[C@H]1C(=O)Nc1ccc(/C=C/c2ccc(NC(=O)[C@@H]3CCCN3C(=O)c3ccccc3OC)cc2)cc1 [Example 133] | 1000 to 10000 nM |
| CCCOc1ccccc1C(=O)N1CCC[C@H]1C(=O)Nc1ccc(/C=C/c2ccc(NC(=O)[C@@H]3CCCN3C(=O)c3ccccc3OCCC)cc2)cc1 [Example 134] | 1000 to 10000 nM |
| CC(=O)c1ccccc1C(=O)N1CCC[C@H]1C(=O)Nc1ccc(/C=C/c2ccc(NC(=O)[C@@H]3CCCN3C(=O)c3ccccc3C(C)=O)cc2)cc1 [Example 135] | 1000 to 10000 nM |
| CCC(=O)c1ccccc1C(=O)N1CCC[C@H]1C(=O)Nc1ccc(/C=C/c2ccc(NC(=O)[C@@H]3CCCN3C(=O)c3ccccc3C(=O)CC)cc2)cc1 [Example 136] | 1000 to 10000 nM |
| O=C(Nc1ccc(/C=C/c2ccc(NC(=O)[C@@H]3CCCN3C(=O)c3ccccc3-n3cccc3)cc2)cc1)[C@@H]1CCCN1C(=O)c1ccccc1-n1cccc1 [Example 137] | 1000 to 10000 nM |
| COc1ccc(Cl)cc1C(=O)N1CCC[C@H]1C(=O)Nc1ccc(/C=C/c2ccc(NC(=O)[C@@H]3CCCN3C(=O)c3cc(Cl)ccc3OC)cc2)cc1 [Example 138] | 1000 to 10000 nM |
| COc1ccc(C)cc1C(=O)N1CCC[C@H]1C(=O)Nc1ccc(/C=C/c2ccc(NC(=O)[C@@H]3CCCN3C(=O)c3cc(C)ccc3OC)cc2)cc1 [Example 139] | 100 to 1000 nM |
| CNc1ccccc1C(=O)N1CCC[C@H]1C(=O)Nc1ccc(/C=C/c2ccc(NC(=O)[C@@H]3CCCN3C(=O)c3ccccc3NC)cc2)cc1 [Example 140] | 100 to 1000 nM |
